# According to ChEMBL document CHEMBL6134799, “Auto-RapTAC: A Versatile and Sustainable Platform for the Automated Rapid Synthesis and Evaluation of PROTAC” (J Med Chem, 2025):
# The source made the active and inactive calls. The rule behind the calls is not given here.
# Legend:
# Assay type in all cases: cell-based
# HeLa [1] = test: Auto-RapTAC activity at MDM2/CDK12 in human HeLa cells assessed as CDK12 degradation at 500 to 1000 nM incubated for 24 hrs by cytoblot analysis relative to control; settings: dose 500-1000 nM
# [2] = (§1) Auto-RapTAC activity at MDM2/CDK12 in human HeLa cells assessed as CDK12 degradation incubated for 24 hrs by cytoblot analysis
# HeLa [3] = test: as §1; settings: dose 500-1000 nM
# HEK293T = test: Auto-RapTAC activity at MDM2/BCL6 in HEK293T cells expressing GFP-BCL6 (unknown origin) assessed as BCL6 degradation at 500 to 1000 nM incubated for 24 hrs by fluorescence based analysis; settings: Homo sapiens, dose 500-1000 nM
# [4] = target: von Hippel-Lindau disease tumor suppressor/B-cell lymphoma 6 protein (Homo sapiens, UniProt P40337+P41182); test: Auto-RapTAC activity at VHL/BCL6 in HEK293T cells expressing GFP-BCL6 (unknown origin) assessed as BCL6 degradation incubated for 24 hrs by fluorescence based analysis
# [5] = target: T1, von Hippel-Lindau disease tumor suppressor/Cyclin-dependent kinase 12 (Homo sapiens, UniProt P40337+Q9NYV4); test: Auto-RapTAC activity at VHL/CDK12 in human HeLa cells assessed as CDK12 degradation at 500 to 1000 nM incubated for 24 hrs by cytoblot analysis relative to control; settings: dose 500-1000 nM
# Target sequence in this assay (P40337 whole entry, looked up): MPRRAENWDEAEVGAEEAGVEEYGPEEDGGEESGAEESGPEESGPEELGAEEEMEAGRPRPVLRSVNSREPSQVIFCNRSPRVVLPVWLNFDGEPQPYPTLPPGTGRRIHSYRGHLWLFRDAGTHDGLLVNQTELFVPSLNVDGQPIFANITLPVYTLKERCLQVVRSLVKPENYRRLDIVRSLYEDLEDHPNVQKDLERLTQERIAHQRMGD
# Target sequence in this assay (Q9NYV4 whole entry, looked up): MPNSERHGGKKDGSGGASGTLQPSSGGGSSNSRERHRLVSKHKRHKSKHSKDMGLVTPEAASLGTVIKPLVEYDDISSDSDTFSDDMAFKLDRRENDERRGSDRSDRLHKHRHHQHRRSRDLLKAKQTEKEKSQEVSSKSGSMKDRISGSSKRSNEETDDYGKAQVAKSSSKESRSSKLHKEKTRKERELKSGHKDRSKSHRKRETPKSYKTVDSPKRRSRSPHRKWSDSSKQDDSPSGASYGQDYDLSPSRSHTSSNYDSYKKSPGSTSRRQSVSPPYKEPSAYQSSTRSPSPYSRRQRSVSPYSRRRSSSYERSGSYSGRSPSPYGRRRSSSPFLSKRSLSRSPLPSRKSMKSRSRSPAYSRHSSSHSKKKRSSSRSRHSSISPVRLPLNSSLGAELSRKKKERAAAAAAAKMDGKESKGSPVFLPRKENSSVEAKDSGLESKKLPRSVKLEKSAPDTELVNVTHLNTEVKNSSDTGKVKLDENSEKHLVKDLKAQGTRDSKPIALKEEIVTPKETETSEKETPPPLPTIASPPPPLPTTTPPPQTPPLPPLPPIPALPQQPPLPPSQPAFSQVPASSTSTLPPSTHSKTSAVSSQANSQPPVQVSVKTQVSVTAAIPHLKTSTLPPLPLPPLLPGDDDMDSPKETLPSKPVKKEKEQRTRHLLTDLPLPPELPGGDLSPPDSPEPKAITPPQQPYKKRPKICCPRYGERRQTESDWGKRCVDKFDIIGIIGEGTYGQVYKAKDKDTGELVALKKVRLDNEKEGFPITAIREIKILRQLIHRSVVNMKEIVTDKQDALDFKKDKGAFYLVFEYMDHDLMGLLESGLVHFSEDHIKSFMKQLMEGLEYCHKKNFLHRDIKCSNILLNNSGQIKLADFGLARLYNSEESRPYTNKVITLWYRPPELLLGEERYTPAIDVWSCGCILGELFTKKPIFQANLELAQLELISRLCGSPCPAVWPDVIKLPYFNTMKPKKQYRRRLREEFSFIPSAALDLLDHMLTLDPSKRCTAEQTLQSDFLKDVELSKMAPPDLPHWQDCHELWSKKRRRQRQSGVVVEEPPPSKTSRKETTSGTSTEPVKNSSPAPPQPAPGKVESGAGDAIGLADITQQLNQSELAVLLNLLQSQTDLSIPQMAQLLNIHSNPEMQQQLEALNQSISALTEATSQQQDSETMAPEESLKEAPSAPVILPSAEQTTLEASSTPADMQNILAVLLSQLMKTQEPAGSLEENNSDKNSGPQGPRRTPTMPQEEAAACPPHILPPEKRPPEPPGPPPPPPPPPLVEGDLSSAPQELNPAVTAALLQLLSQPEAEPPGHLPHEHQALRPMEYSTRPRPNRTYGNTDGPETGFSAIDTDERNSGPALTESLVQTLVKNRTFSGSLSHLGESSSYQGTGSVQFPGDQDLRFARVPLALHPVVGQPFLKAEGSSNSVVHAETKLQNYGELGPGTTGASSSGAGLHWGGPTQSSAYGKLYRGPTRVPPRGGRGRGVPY
# [6] = target: Protein cereblon/Cyclin-dependent kinase 2 (Homo sapiens, UniProt P24941+Q96SW2); test: Auto-RapTAC activity at CRBN/CDK2 in human NCI-H1299 cells assessed as CDK2 degradation incubated for 24 hrs by Western blot analysis
# [7] = target: T2, Protein cereblon/B-cell lymphoma 6 protein (Homo sapiens, UniProt Q96SW2+P41182); test: Auto-RapTAC activity at CRBN/BCL6 in HEK293T cells expressing GFP-BCL6 (unknown origin) assessed as BCL6 degradation at 500 to 1000 nM incubated for 24 hrs by fluorescence based analysis; settings: dose 500-1000 nM
# [8] = target: T1, von Hippel-Lindau disease tumor suppressor/Cyclin-dependent kinase 12; test: Auto-RapTAC activity at VHL/CDK12 in human HeLa cells assessed as CDK12 degradation incubated for 24 hrs by cytoblot analysis
# [9] = target: T2, Protein cereblon/B-cell lymphoma 6 protein; test: Auto-RapTAC activity at CRBN/BCL6 in HEK293T cells expressing GFP-BCL6 (unknown origin) assessed as BCL6 degradation incubated for 24 hrs by fluorescence based analysis
# T2 sequence (Q96SW2 whole entry, looked up, other chains not shown): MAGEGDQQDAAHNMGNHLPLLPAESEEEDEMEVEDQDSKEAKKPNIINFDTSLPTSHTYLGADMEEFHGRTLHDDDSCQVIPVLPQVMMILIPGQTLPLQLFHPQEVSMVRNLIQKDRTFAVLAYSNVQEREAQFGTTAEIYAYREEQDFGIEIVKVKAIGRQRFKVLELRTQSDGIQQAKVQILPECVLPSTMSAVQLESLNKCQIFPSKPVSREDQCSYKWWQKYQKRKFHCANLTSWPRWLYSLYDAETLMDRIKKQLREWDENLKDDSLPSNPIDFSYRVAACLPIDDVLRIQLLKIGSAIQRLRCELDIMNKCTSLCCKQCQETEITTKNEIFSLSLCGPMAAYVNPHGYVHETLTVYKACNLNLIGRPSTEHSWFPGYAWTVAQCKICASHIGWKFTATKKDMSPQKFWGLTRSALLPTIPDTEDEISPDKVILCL
# Chain of von Hippel-Lindau disease tumor suppressor/B-cell lymphoma 6 protein (P40337 whole entry, looked up, other chains not shown): as the sequence (P40337 whole entry, looked up) above
smiles,measurement,setting,value
CCOC(=O)c1[nH]c2cc(Cl)ccc2c1C(C(=O)NC(C)(C)C)N(Cc1cc(F)c(F)c(F)c1)C(=O)CCCCCCn1cc(CCCOc2cc3[nH]c(CNc4nc(N5CCOCC5)nc5c4ncn5C(C)C)nc3cc2F)nn1 (centres undefined),Activity,HeLa [1],> 60%
same,DC50,[2],2.4 nM
same,Activity,HeLa [3],Dose-dependent-effect; Hook Effect Was Not Observed
CNC(=O)COc1cc2cc(Nc3nc(N4CCC(c5cn(CCCCCCCCCCC(=O)N[C@@H](C(=O)N6C[C@H](O)C[C@H]6C(=O)N[C@@H](C)c6ccc(-c7scnc7C)cc6)C(C)(C)C)nn5)CC4)ncc3Cl)ccc2n(C)c1=O,Activity,HEK293T,Active
same,DC50,[4],3.1 nM
same,Activity,[4]; dose 500-1000 nM,Dose-dependent-effect; Hook Effect Was Not Observed
Cc1ncsc1-c1ccc([C@H](C)NC(=O)[C@@H]2C[C@@H](O)CN2C(=O)[C@H](NC(=O)CCCCCCCCCCn2cc(CCCOc3cc4[nH]c(CNc5nc(N6CCOCC6)nc6c5ncn6C(C)C)nc4cc3F)nn2)C(C)(C)C)cc1,Activity,[5],> 60%
Cc1ncsc1-c1ccc([C@H](C)NC(=O)[C@@H]2C[C@@H](O)CN2C(=O)[C@H](NC(=O)CCCCCCCCCCn2cc(CCC(=O)N3CCC(NC(=O)c4n[nH]cc4NC(=O)c4c(Cl)cccc4Cl)CC3)nn2)C(C)(C)C)cc1,DC50,[6],454 nM
Cc1ncsc1-c1ccc([C@H](C)NC(=O)[C@@H]2C[C@@H](O)CN2C(=O)[C@H](NC(=O)CCCCCCCCCCn2cc(CCC(=O)N3CCC(NC(=O)c4n[nH]cc4NC(=O)c4c(F)cccc4Cl)CC3)nn2)C(C)(C)C)cc1,DC50,[6],362 nM
CNC(=O)COc1cc2cc(Nc3nc(N4CCC(c5cn(CCCCCCCCOc6ccc7c(c6)C(=O)N(C6CCC(=O)NC6=O)C7=O)nn5)CC4)ncc3Cl)ccc2n(C)c1=O (centres undefined),Activity,[7],Active
CNC(=O)COc1cc2cc(Nc3nc(N4CCC(c5cn(CCCCCCCCCCOc6ccc7c(c6)C(=O)N(C6CCC(=O)NC6=O)C7=O)nn5)CC4)ncc3Cl)ccc2n(C)c1=O (centres undefined),Activity,[7],Active
CNC(=O)COc1cc2cc(Nc3nc(N4CCC(c5cn(CCCCCCCCCOc6ccc7c(c6)C(=O)N(C6CCC(=O)NC6=O)C7=O)nn5)CC4)ncc3Cl)ccc2n(C)c1=O (centres undefined),Activity,[7],Active
Cc1ncsc1-c1ccc([C@H](C)NC(=O)[C@@H]2C[C@@H](O)CN2C(=O)[C@H](NC(=O)COCCCCn2cc(CCCOc3cc4[nH]c(CNc5nc(N6CCOCC6)nc6c5ncn6C(C)C)nc4cc3F)nn2)C(C)(C)C)cc1,Activity,[5],> 60%
same,DC50,[8],2.7 nM
same,Activity,[8]; dose 500-1000 nM,Dose-dependent-effect; Hook Effect Was Not Observed
CCOC(=O)c1[nH]c2cc(Cl)ccc2c1C(C(=O)NC(C)(C)C)N(Cc1cc(F)c(F)c(F)c1)C(=O)CCCCCn1cc(CCCOc2cc3[nH]c(CNc4nc(N5CCOCC5)nc5c4ncn5C(C)C)nc3cc2F)nn1 (centres undefined),Activity,HeLa [1],> 60%
CNC(=O)COc1cc2cc(Nc3nc(N4CCC(c5cn(CCCCCCCOc6ccc7c(c6)C(=O)N(C6CCC(=O)NC6=O)C7=O)nn5)CC4)ncc3Cl)ccc2n(C)c1=O (centres undefined),Activity,[7],Active
same,DC50,[9],7 nM
same,Activity,[9]; dose 500-1000 nM,Dose-dependent-effect; Hook Effect Was Not Observed
